In ChEMBL document CHEMBL5370521, “New miconazole-based azoles derived from eugenol show activity against Candida spp. and Cryptococcus gattii by inhibiting the fungal ergosterol biosynthesis” (Eur J Med Chem, 2023):
≈ marks a conversion by molar mass, not a printed value. Calls of active or inactive are those of the source. The rule behind the calls is not given here.

Assays:
[1] = Antifungal activity against Cryptococcus gattii ATCC 24065 assessed as inhibition of fungal growth incubated for 24 to 48 hrs by CLSI protocol based broth microdilution method; format: functional, Cryptococcus gattii VGI; settings: time 24-48 hrs
[2] = test system: Nakaseomyces glabratus; assay: Antifungal activity against Candida glabrata ATCC 2001 assessed as inhibition of fungal growth incubated for 24 to 48 hrs by CLSI protocol based broth microdilution method; format: functional; settings: time 24-48 hrs
[3] = Selectivity index, ratio of CC50 for cytotoxicity against […] H9c2 cells to MIC for antifungal activity against Candida glabrata ATCC 2001; format: toxicity, cell-based; settings: rat, read-out: Selectivity Index
[4] = Cytotoxicity against H9c2 cells assessed as inhibition of cell proliferation incubated for 72 hrs by resazurin dye based microplate reader analysis; format: toxicity; settings: rat
[5] = test system: [Candida] auris; assay: Antifungal activity against Candida auris COLO 01 A assessed as inhibition of fungal growth at highest concentration incubated for 24 to 48 hrs by CLSI protocol based broth microdilution method; format: functional, organism-based; settings: Candidozyma auris, time 24-48 hrs
[6] = test system: Candida albicans; assay: Antifungal activity against Candida albicans SC5314 assessed as inhibition of fungal growth at highest concentration incubated for 24 to 48 hrs by CLSI protocol based broth microdilution method; format: functional, organism-based; settings: time 24-48 hrs
[7] = Selectivity index, ratio of CC50 for cytotoxicity against […] H9c2 cells to MIC for antifungal activity against Cryptococcus gattii ATCC 24065; format: toxicity, cell-based; settings: rat, read-out: Selectivity Index
[8] = test system: Pichia kudriavzevii; assay: Antifungal activity against Candida krusei ATCC 20298 assessed as inhibition of fungal growth at highest concentration incubated for 24 to 48 hrs by CLSI protocol based broth microdilution method; format: functional, organism-based; settings: time 24-48 hrs
[9] = test system: Candida parapsilosis; assay: Antifungal activity against Candida parapsilosis ATCC 22019 assessed as inhibition of fungal growth at highest concentration incubated for 24 to 48 hrs by CLSI protocol based broth microdilution method; format: functional, organism-based; settings: time 24-48 hrs
[10] = test system: Candida tropicalis; assay: Antifungal activity against Candida tropicalis ATCC 750 assessed as inhibition of fungal growth at highest concentration incubated for 24 to 48 hrs by CLSI protocol based broth microdilution method; format: functional, organism-based; settings: time 24-48 hrs
[11] = test system: Cryptococcus gattii VGI; assay: Antifungal activity against Cryptococcus gattii ATCC 24065 assessed as inhibition of fungal growth at highest concentration incubated for 24 to 48 hrs by CLSI protocol based broth microdilution method; format: functional; settings: time 24-48 hrs
[12] = test system: Nakaseomyces glabratus; assay: Antifungal activity against Candida glabrata ATCC 2001 assessed as inhibition of fungal growth at highest concentration incubated for 24 to 48 hrs by CLSI protocol based broth microdilution method; format: functional, organism-based; settings: time 24-48 hrs
[13] = biological target: T1, Lanosterol 14-alpha demethylase (Candida albicans (strain SC5314 / ATCC MYA-2876) (Yeast), UniProt P10613); assay: Inhibition of CYP51 in Candida albicans SC5314 assessed as reduction in ergosterol level at 3 fold MIC incubated overnight by spectrophotometric analysis
[14] = test system: Candida tropicalis; assay: Antifungal activity against Candida tropicalis ATCC 750 assessed as inhibition of fungal growth incubated for 24 to 48 hrs by CLSI protocol based broth microdilution method; format: functional; settings: time 24-48 hrs
[15] = test system: Candida parapsilosis; assay: Antifungal activity against Candida parapsilosis ATCC 22019 assessed as inhibition of fungal growth incubated for 24 to 48 hrs by CLSI protocol based broth microdilution method; format: functional; settings: Lodderomyces parapsilosis, time 24-48 hrs
[16] = test system: Candida albicans; assay: Antifungal activity against Candida albicans SC5314 assessed as inhibition of fungal growth incubated for 24 to 48 hrs by CLSI protocol based broth microdilution method; format: functional; settings: time 24-48 hrs
[17] = test system: [Candida] auris; assay: Antifungal activity against Candida auris COLO 01 A assessed as inhibition of fungal growth incubated for 24 to 48 hrs by CLSI protocol based broth microdilution method; format: functional; settings: Candidozyma auris, time 24-48 hrs
[18] = test system: Pichia kudriavzevii; assay: Antifungal activity against Candida krusei ATCC 20298 assessed as inhibition of fungal growth incubated for 24 to 48 hrs by CLSI protocol based broth microdilution method; format: functional; settings: time 24-48 hrs
[19] = biological target: T1, Lanosterol 14-alpha demethylase; assay: Inhibition of CYP51 in Candida albicans SC5314 assessed as reduction in ergosterol level at 2 fold MIC incubated overnight by spectrophotometric analysis
[20] = Selectivity index, ratio of CC50 for cytotoxicity against […] H9c2 cells to MIC for antifungal activity against Candida parapsilosis ATCC 22019; format: toxicity, cell-based; settings: read-out: Selectivity Index
[21] = Selectivity index, ratio of CC50 for cytotoxicity against […] H9c2 cells to MIC for antifungal activity against Candida tropicalis ATCC 750; format: toxicity, cell-based; settings: read-out: Selectivity Index
[22] = test system: Candida albicans; assay: Potency index, ratio of miconazole MIC to test compound MIC for antifungal activity against Candida albicans SC5314 assessed as inhibition of fungal growth incubated for 24 to 48 hrs by CLSI protocol based broth microdilution method; format: functional; settings: time 24-48 hrs
[23] = Selectivity index, ratio of CC50 for cytotoxicity against […] H9c2 cells to MIC for antifungal activity against Candida albicans SC5314; format: toxicity, cell-based; settings: read-out: Selectivity Index
[24] = test system: [Candida] auris; assay: Potency index, ratio of fluconazole MIC to test compound MIC for antifungal activity against Candida auris COLO 01 A assessed as inhibition of fungal growth incubated for 24 to 48 hrs by CLSI protocol based broth microdilution method; format: functional, Candidozyma auris; settings: time 24-48 hrs
[25] = test system: [Candida] auris; assay: Potency index, ratio of miconazole MIC to test compound MIC for antifungal activity against Candida auris COLO 01 A assessed as inhibition of fungal growth incubated for 24 to 48 hrs by CLSI protocol based broth microdilution method; format: functional, Candidozyma auris; settings: time 24-48 hrs
[26] = Selectivity index, ratio of CC50 for cytotoxicity against […] H9c2 cells to MIC for antifungal activity against Candida auris COLO 01 A; format: toxicity, cell-based; settings: read-out: Selectivity Index
[27] = Selectivity index, ratio of CC50 for cytotoxicity against […] H9c2 cells to MIC for antifungal activity against Candida krusei ATCC 20298; format: toxicity, cell-based; settings: read-out: Selectivity Index

T1 sequence (P10613 whole entry): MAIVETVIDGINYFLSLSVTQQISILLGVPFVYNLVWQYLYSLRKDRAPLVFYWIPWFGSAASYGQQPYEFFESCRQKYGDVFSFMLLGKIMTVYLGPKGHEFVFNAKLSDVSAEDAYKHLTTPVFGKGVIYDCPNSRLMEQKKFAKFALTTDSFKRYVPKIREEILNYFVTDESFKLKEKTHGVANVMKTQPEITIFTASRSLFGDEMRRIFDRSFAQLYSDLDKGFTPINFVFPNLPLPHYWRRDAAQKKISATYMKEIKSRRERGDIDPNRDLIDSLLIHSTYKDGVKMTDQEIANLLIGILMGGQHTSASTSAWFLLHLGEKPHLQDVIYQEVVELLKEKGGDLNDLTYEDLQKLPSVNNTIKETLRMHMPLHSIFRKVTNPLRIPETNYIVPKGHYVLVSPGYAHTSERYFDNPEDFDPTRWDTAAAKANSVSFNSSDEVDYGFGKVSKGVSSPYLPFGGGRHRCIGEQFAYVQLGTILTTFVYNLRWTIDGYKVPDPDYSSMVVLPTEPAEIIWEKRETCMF

| Compound | MIC [1] | MIC [2] | CC50 at 72 h [4] | Activity [5] | Activity [6] | Activity [8] | Activity [9] | Activity [10] | Activity [11] | Activity [12] | other results |
| --- | --- | --- | --- | --- | --- | --- | --- | --- | --- | --- | --- |
| C=CCc1ccc(OCC(Cn2ccnc2)OCc2ccc(Cl)cc2)c(OC)c1 (configuration not stated) | 18.9 µM (≈ 7.8 µg/mL) | 36.8 µM (≈ 15.2 µg/mL) | 33.6 µM | inactive | inactive | inactive | inactive | inactive |  |  | selectivity ratio [3]: 0.9; selectivity ratio [7]: 1.8 |
| C=CCc1ccc(OCC(O)Cn2cncn2)c(OC)c1 (configuration not stated) |  |  | 541 µM | inactive | inactive | inactive | inactive | inactive | inactive | inactive |  |
| C=CCc1ccc(OCC(Cn2cncn2)OCc2ccc(Cl)cc2)c(OC)c1 (configuration not stated) |  |  | 52.9 µM | inactive | inactive | inactive | inactive | inactive | inactive | inactive |  |
| OC(Cn1cncn1)(Cn1cncn1)c1ccc(F)cc1F [FLUCONAZOLE] | 13.1 µM (≈ 4.01 µg/mL) | 13.1 µM (≈ 4.01 µg/mL) |  |  |  |  |  |  |  |  | inhibition (INH) [13]: Active; MIC [14]: 0.8 µM (≈ 0.245 µg/mL); MIC [15]: 3.3 µM (≈ 1.01 µg/mL); MIC [16]: 1.6 µM (≈ 0.49 µg/mL); MIC [17]: 209 µM (≈ 64 µg/mL); MIC [18]: 104 µM (≈ 32 µg/mL); inhibition (INH) [19]: Active |
| CCCc1ccc(OCC(Cn2cncn2)OC(=O)c2ccc(Cl)cc2)c(OC)c1 (configuration not stated) |  |  | 35.4 µM | inactive | inactive | inactive | inactive | inactive | inactive | inactive |  |
| C=CCc1ccc(OCC(Cn2ccnc2)OC(=O)c2ccc(Cl)cc2)c(OC)c1 (configuration not stated) | 73.2 µM (≈ 31.2 µg/mL) | 36.5 µM (≈ 15.6 µg/mL) | 129 µM | inactive |  | inactive |  |  |  |  | selectivity ratio [20]: 1.8; selectivity ratio [3]: 3.5; inhibition (INH) [13]: Active; MIC [14]: 73.2 µM (≈ 31.2 µg/mL); selectivity ratio [7]: 1.8; selectivity ratio [21]: 1.8; MIC [15]: 73.2 µM (≈ 31.2 µg/mL); Ratio [22]: 32; MIC [16]: 4.6 µM (≈ 1.96 µg/mL); selectivity ratio [23]: 28.2 |
| CCCc1ccc(OCC(Cn2ccnc2)OC(=O)c2ccc(Cl)cc2)c(OC)c1 (configuration not stated) | 72.7 µM (≈ 31.2 µg/mL) | 36.4 µM (≈ 15.6 µg/mL) | 35.5 µM |  | inactive | inactive | inactive | inactive |  |  | selectivity ratio [3]: 0.9; Ratio [24]: >5; Ratio [25]: 2; selectivity ratio [7]: 0.5; selectivity ratio [26]: 0.9; MIC [17]: 36.4 µM (≈ 15.6 µg/mL) |
| CCCc1ccc(OCC(Cn2cncn2)OCc2ccc(Cl)cc2)c(OC)c1 (configuration not stated) |  |  | 40.1 µM | inactive | inactive | inactive | inactive | inactive | inactive | inactive |  |
| CCCc1ccc(OCC(O)Cn2ccnc2)c(OC)c1 (configuration not stated) |  |  | 453 µM | inactive | inactive | inactive | inactive | inactive | inactive | inactive |  |
| CCCc1ccc(OCC(O)Cn2cncn2)c(OC)c1 (configuration not stated) |  |  | 553 µM | inactive | inactive | inactive | inactive | inactive | inactive | inactive |  |
| CCCc1ccc(OCC(Cn2ccnc2)OCc2ccc(Cl)cc2)c(OC)c1 (configuration not stated) | 18.8 µM (≈ 7.8 µg/mL) | 37.6 µM (≈ 15.6 µg/mL) | 44.2 µM |  |  |  |  |  |  |  | selectivity ratio [20]: 0.6; selectivity ratio [3]: 1.2; inhibition (INH) [13]: Active; Ratio [24]: >2; MIC [14]: 75.3 µM (≈ 31.2 µg/mL); selectivity ratio [27]: 1.2; selectivity ratio [7]: 2.4; selectivity ratio [21]: 0.6; MIC [15]: 75.3 µM (≈ 31.2 µg/mL); selectivity ratio [26]: 0.6; Ratio [22]: 8; MIC [16]: 18.8 µM (≈ 7.8 µg/mL); selectivity ratio [23]: 2.3; MIC [17]: 75.3 µM (≈ 31.2 µg/mL); MIC [18]: 37.6 µM (≈ 15.6 µg/mL); inhibition (INH) [19]: Active |
| Clc1ccc(COC(Cn2ccnc2)c2ccc(Cl)cc2Cl)c(Cl)c1 (configuration not stated) [MICONAZOLE] | 9.4 µM (≈ 3.91 µg/mL) | 1.2 µM (≈ 0.499 µg/mL) |  |  |  |  |  |  |  |  | MIC [14]: 31.2 µM (≈ 13 µg/mL); MIC [15]: 7.8 µM (≈ 3.25 µg/mL); MIC [16]: 150 µM (≈ 62.5 µg/mL); MIC [17]: 74.9 µM (≈ 31.2 µg/mL); MIC [18]: 18.7 µM (≈ 7.78 µg/mL) |
| C=CCc1ccc(OCC(O)Cn2ccnc2)c(OC)c1 (configuration not stated) |  |  | 644 µM | inactive | inactive | inactive | inactive | inactive | inactive | inactive |  |
| C=CCc1ccc(OCC(Cn2cncn2)OC(=O)c2ccc(Cl)cc2)c(OC)c1 (configuration not stated) |  |  | 96.2 µM | inactive | inactive | inactive | inactive | inactive | inactive | inactive |  |
